Reference: patent US7557244B2, “Substituted biphenyl carboxylic acids and derivatives thereof” (Ortho-McNeil Pharmaceutical, Inc., priority 2006, dated 2009)
pEC50: −log10 of the molar value.

Experiments:
γ-secretase = test: Screening for γ-secretase-modulating activity, Aβ 42 in SKNBE2 cells carrying APP 695-wild type; assay type: cell-based; details: for pEC50: read-out: WTAPP SKNBE2 Aβ 42 EC50
Experimental: Screening of the Compounds of the Invention for γ-Secretase-Modulating Activity
Screening was carried out using SKNBE2 cells carrying the APP 695-wild type, grown in DMEM/NUT-mix F12 (HAM) provided by Gibco (cat no. 31330-38) containing 5% Serum/Fe supplemented with 1% non-essential amino acids.
Cells were grown to near confluency.
The screening was performed using the assay as described in Citron et al (1997) Nature Medicine 3: 67.
IC50-Values of Selected Compounds of the Invention on the γ-Secretase Activity.

Aβ 42 [1] = test: In vivo Aβ 42 lowering, mouse; details: oral dose 30 mg/kg at 4 hr time point
Excerpt: (§1) To determine whether acute administration of an Aβ42 lowering agent would reduce Aβ42 levels in vivo, non-transgenic rodents, e.g. mice or rats can be used. Alternatively, two to three month old Tg2576 mice expressing APP695 containing the “Swedish” variant can be used or a transgenic mouse model developed by Dr. Fred Van Leuven (K. U. Leuven, Belgium) and co-workers, with neuron-specific expression of a clinical mutant of the human amyloid precursor protein [V717I] (Moechars et al., 1999 J. Biol. Chem. 274, 6483). […] Animals of this age have high levels of Aβ in the brain but no detectable Aβ deposition. Mice treated with the Aβ42 lowering agent will be examined and compared to those untreated or treated with vehicle and brain levels of soluble Aβ42 and total Aβ would be quantitated by standard techniques, for example, using ELISA. Treatment periods may vary from hours to days and will be adjusted based on the results of the Aβ42 lowering once a time course of onset of effect can be established.
A typical protocol for measuring Aβ42 lowering in vivo is shown but it is only one of many variations that could be used to optimize the levels of detectable Aβ. For example, aliquots of compounds can be dissolved in DMSO (volume equal to 1/10th of the final formulation volume), vortexed and further diluted (1:10) with a 10% (w/v) hydroxypropyl β cyclodextrin (HBC, Aldrich, Ref No 33,260-7) solution in PBS, where after they are sonicated for 20 seconds.
Aβ42 lowering agents may be administered as a single oral dose given three to four hours before sacrifice and analysis or alternatively could be given over a course of days and the animals sacrificed three to four hours after the final dose is given.
Blood is collected at sacrifice. The blood collection is performed via a heart puncture during anesthesia with a mixture of Ketalar (Ketamin), Rompun (Xylazin 2%) and Atropin (2:1:1) and collected in EDTA treated collection tubes. Blood is centrifuged at 4000 g for 5 minutes at 4° C. and the plasma recovered for analysis. […]

Aβ 42 [2] = test: In vivo Aβ 42 lowering, rat; details: oral dose 30 mg/kg at 4 hr time point
Excerpt: as §1
A typical protocol for measuring Aβ42 lowering in vivo is shown but it is only one of many variations that could be used to optimize the levels of detectable Aβ. […]

pEC50 (γ-secretase)	Structure (SMILES)	WTAPP SKNBE2 Aβ 42 % Inhibition at 3 μM (γ-secretase) [%]	also measured
7.00	CC(C)C[C@@H](C(=O)O)c1cc(Nc2cc(C(F)(F)F)ccc2C(F)(F)F)cc(-c2ccc(C(F)(F)F)cc2)c1 [Compound 46, (R)2-[5-(2,5-Bis-trifluoromethyl-phenylamino)-4′-trifluoromethyl-biphenyl-3-yl]-4-methyl-pentanoic acid]		Mouse Efficacy % Lowering Aβ 42 (Aβ 42 [1]): 18%; Rat Efficacy % Lowering Aβ 42 (Aβ 42 [2]): 30%
6.85	CC(C)CC(C(=O)O)c1cc(Oc2cc(F)cc(C(F)(F)F)c2)cc(-c2ccc(Cl)c(C(F)(F)F)c2)c1 (centres unmarked) [Compound 21, 4-Methyl-2-[4′-chloro-3′-trifluoromethyl-5-(3-fluoro-5-trifluoromethylphenoxy)-biphenyl-3-yl]-pentanoic acid]		Mouse Efficacy % Lowering Aβ 42 (Aβ 42 [1]): 25%
	CC(C)CC(C)(C(=O)O)c1cc(Nc2ccc(C#N)cc2)cc(-c2ccc(C(F)(F)F)cc2)c1 (centres unmarked) [Compound 14, 2-[5-(4-Cyano-phenylamino)-4′-trifluoromethyl-biphenyl-3-yl]-2,4-dimethyl-pentanoic acid]	17	
	CC(C)CC(C(=O)O)c1cc(Oc2cccc(F)c2)cc(-c2ccc(C(F)(F)F)cc2)c1 (centres unmarked) [Compound 26, 2-[5-(3-Fluoro-phenoxy)-4′-trifluoromethyl-biphenyl-3-yl]-4-methyl-pentanoic acid]	58	
6.70	CC(C)CC(C(=O)O)c1cc(Nc2cc(C(F)(F)F)ccc2C(F)(F)F)cc(-c2ccc(C(F)(F)F)cc2)c1 (centres unmarked) [Compound 8, 2-[5-(2,5-Bis-trifluoromethyl-phenylamino)-4′-trifluoromethyl-biphenyl-3-yl]-4-methyl-pentanoic acid]		
6.48	CC(C)CC(C(=O)O)c1cc(Oc2cc(F)cc(C(F)(F)F)c2)cc(-c2ccc(C(F)(F)F)cc2)c1 (centres unmarked) [Compound 30, 2-[5-(3-Fluoro-5-trifluoromethyl-phenoxy)-4′-trifluoromethyl-biphenyl-3-yl]-4-methyl-pentanoic acid]		Mouse Efficacy % Lowering Aβ 42 (Aβ 42 [1]): 43%
	CC(C)CC(C(=O)O)c1cc(Nc2cc(C(F)(F)F)ccc2C(F)(F)F)cc(-c2ccc(Cl)c(C(F)(F)F)c2)c1 (centres unmarked) [Compound 39, 2-[4′-Chloro-5-(2,5-bis-trifluoromethyl-phenylamino)-3′-trifluoromethyl-biphenyl-3-yl]-4-methyl-pentanoic acid]	95	
	CC(C)CC(C(=O)O)c1cc(Nc2cc(F)cc(F)c2)cc(-c2ccc(C(F)(F)F)cc2)c1 (centres unmarked) [Compound 1, 2-[5-(3,5-Difluoro-phenylamino)-4′-trifluoromethyl-biphenyl-3-yl]-4-methyl-pentanoic acid]	73	
	CC(C)CC(C(=O)O)c1cc(Oc2cc(F)cc(C(F)(F)F)c2)cc(-c2cc(F)cc(C(F)(F)F)c2)c1 (centres unmarked) [Compound 32, 2-[3′-Fluoro-5-(3-fluoro-5-trifluoromethyl-phenoxy)-5′-trifluoromethyl-biphenyl-3-yl]-4-methyl-pentanoic acid]	87	
	CC(C)CC(C(=O)O)c1cc(Oc2cc(F)cc(F)c2)cc(-c2cc(F)cc(C(F)(F)F)c2)c1 (centres unmarked) [Compound 33, 2-[5-(3,5-Difluoro-phenoxy)-3′-fluoro-5′-trifluoromethyl-biphenyl-3-yl]-4-methyl-pentanoic acid]	59	
	CC(C)CC(C(=O)O)c1cc(Nc2ccc(Cl)cc2)cc(-c2ccc(C(F)(F)F)cc2)c1 (centres unmarked) [Compound 5, 2-[5-(4-Chloro-phenylamino)-4′-trifluoromethyl-biphenyl-3-yl]-4-methyl-pentanoic acid]	79	
	CC(C)CC(C(=O)O)c1cc(Nc2cc(C(F)(F)F)cc(C(F)(F)F)c2)cc(-c2cc(C(F)(F)F)cc(C(F)(F)F)c2)c1 (centres unmarked) [Compound 43, 2-[5-(3,5-Bis-trifluoromethyl-phenylamino)-3′,5′-bis-trifluoromethyl-biphenyl-3-yl]-4-methyl-pentanoic acid]	89	
	CC(C)CC(C(=O)O)c1cc(Nc2ccc(Cl)c(C(F)(F)F)c2)cc(-c2ccc(C(F)(F)F)cc2)c1 (centres unmarked) [Compound 12, 2-[5-(4-Chloro-3-trifluoromethyl-phenylamino)-4′-trifluoromethyl-biphenyl-3-yl]-4-methyl-pentanoic acid]	81	
